From patent US20100286278A1, “Composition comprising an HDAC inhibitor in combination with a retinoid” (DSM IP ASSETS B.V., priority 2004, published 2010) come the findings set out here.

For the experiment, the system named is transglutaminase 1 (TG1) mRNA in human epidermal keratinocytes. The experiment in a line: Expression of transglutaminase 1 (TG1) by differentiating keratinocytes (real time PCR of TG1 mRNA). The settings on record: substances alone: retinol 1×10−10 M, TSA 10−9 M; 1.3 mM calcium; 72 hours; relative to non-treated cells. Type of experiment: cell-based. The source says: This example illustrates how the HDAC inhibitor Trichostatin A and Retinol work synergistically. An in vitro cell culture of human primary keratinocytes has been chosen as test system. This in vitro cell culture model is useful to study differentiation processes and is able to simulate the in vivo situation in human skin (Poumay et al., 1999). To monitor differentiation processes in vitro and in vivo transglutaminase 1 is a well known marker molecule (Polakowska et al., 1999).
Epidermal keratinocytes were isolated from human foreskin biopsies and cultured in keratinocyte serum free medium (KSFM made by GIBCO) in a growth chamber with 37° C. and 5% CO2. At the second passage, cells were transferred to 6 well plates and allowed to reach approximately 50% surface confluence.
Retinol and TSA were solubilized in ethanol or ethanol/tetrahydrofuran respectively. Retinol solutions were handled under yellow light conditions only. […]
Seventy-two hours after the beginning of the treatment, cells were harvested and the RNA extracted. […] Relative quantification of TG1 mRNA transcript levels in control versus treatment cultures were determined using multiplexed real time PCR analysis. […]

Structures are written as SMILES.

Regarding `CC1=C(/C=C/C(C)=C/C=C/C(C)=C/CO)C(C)(C)CCC1` [Retinol], the “modulation of the terminal differentiation process in epidermal keratinocytes (TG1 mRNA)” value is reported as “only weak modulation”.
The entry for `CC(/C=C/C(=O)NO)=C\[C@@H](C)C(=O)c1ccc(N(C)C)cc1` [TSA, Trichostatin A] is “only weak modulation”.
